{"source": "patent US12351580B2", "about": "“NLRP3 modulators” (Innate Tumor Immunity, Inc., priority 2017, dated 2025)"}
{"target": "T1, TLR8 (Homo sapiens, UniProt Q9NR97)", "T1 construct": "host or cells: HEK-Blue cells (human HEK) co-expressing TLR8 and an NF-kB/AP1-inducible SEAP reporter", "T1 sequence (Q9NR97 27-1041)": "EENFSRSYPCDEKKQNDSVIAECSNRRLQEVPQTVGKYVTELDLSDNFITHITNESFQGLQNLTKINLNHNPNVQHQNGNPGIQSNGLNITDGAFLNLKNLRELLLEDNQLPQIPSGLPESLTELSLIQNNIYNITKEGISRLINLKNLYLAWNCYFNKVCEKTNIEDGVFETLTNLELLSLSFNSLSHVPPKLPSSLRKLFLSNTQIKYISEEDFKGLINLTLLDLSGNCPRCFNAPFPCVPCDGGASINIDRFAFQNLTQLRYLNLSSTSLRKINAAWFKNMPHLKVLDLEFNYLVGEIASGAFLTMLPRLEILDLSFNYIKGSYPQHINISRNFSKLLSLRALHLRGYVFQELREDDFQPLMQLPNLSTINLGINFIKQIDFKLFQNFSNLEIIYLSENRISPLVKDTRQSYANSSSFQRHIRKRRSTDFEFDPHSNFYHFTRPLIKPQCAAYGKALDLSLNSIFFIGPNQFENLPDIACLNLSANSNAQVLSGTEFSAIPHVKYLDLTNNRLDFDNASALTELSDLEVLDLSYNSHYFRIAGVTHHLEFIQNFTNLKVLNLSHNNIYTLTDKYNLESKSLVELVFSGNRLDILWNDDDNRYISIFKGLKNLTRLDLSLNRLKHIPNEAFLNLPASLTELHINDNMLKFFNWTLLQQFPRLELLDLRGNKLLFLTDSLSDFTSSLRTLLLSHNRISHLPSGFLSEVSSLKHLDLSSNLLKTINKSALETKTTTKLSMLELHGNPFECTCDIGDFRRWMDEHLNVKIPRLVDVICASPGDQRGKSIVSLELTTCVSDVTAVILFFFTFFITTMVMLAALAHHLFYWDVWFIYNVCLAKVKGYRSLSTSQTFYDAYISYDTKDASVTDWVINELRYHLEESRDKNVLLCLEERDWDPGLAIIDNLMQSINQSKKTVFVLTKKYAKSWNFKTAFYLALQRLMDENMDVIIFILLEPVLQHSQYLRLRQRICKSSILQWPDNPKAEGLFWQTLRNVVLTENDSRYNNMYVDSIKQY", "assay": "In vitro human TLR8 binding reporter assay (HEK-Blue, NF-kB/AP1-inducible SEAP)", "format": "cell-based", "conditions": "activity range symbols", "how_it_was_run": "(§1)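 Reporter cells are plated at 15,000 per well and rested 24 h. Next day, test compounds or DMSO are dispensed, followed by 18 h incubation at 37 °C, 5% CO2.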", "units": {"EC50": "µM"}}
{"smiles": "CCN(Cc1nc2c(N)nc3cc(-c4cc[nH]n4)ccc3c2[nH]1)C(=O)N1CCOCC1", "note": "[Compound 455, N-{[4-amino-7-(1H-pyrazol-3-yl)-1H-imidazo[4,5-c]quinolin-2-yl]methyl}-N-ethylmorpholine-4-carboxamide]", "EC50": "> 100"}
{"smiles": "CCN(Cc1nc2c(N)nc3cc(-c4cc[nH]n4)ccc3c2[nH]1)C(=O)NC(C)(C)C", "note": "[Compound 456, 1-{[4-amino-7-(1H-pyrazol-3-yl)-1H-imidazo[4,5-c]quinolin-2-yl]methyl}-3-tert-butyl-1-ethylurea]", "EC50": "> 100"}
{"smiles": "CCNC(=O)N(CC)Cc1nc2c(N)nc3cc(-c4cc[nH]n4)ccc3c2[nH]1", "note": "[Compound 457, 1-{[4-amino-7-(1H-pyrazol-3-yl)-1H-imidazo[4,5-c]quinolin-2-yl]methyl}-1,3-diethylurea]", "EC50": "> 100"}
{"smiles": "CCN(Cc1nc2c(N)nc3cc(-c4cc[nH]n4)ccc3c2[nH]1)S(=O)(=O)N(C)C", "note": "[Compound 458, 2-{[(dimethylsulfamoyl)(ethyl)amino]methyl}-7-(1H-pyrazol-3-yl)-1H-imidazo[4,5-c]quinolin-4-amine]", "EC50": "> 100"}
{"smiles": "CCN(Cc1nc2c(N)nc3cc(-c4cc[nH]n4)ccc3c2[nH]1)S(=O)(=O)C(C)C", "note": "[Compound 459, N-{[4-amino-7-(1H-pyrazol-3-yl)-1H-imidazo[4,5-c]quinolin-2-yl]methyl}-N-ethylpropane-2-sulfonamide]", "EC50": "> 100"}
{"smiles": "CCNCc1nc2c(N)nc3cc(-c4ccn[nH]4)ccc3c2n1CCO", "note": "[Compound 462, 2-[4-Amino-2-[(ethylamino)methyl]-7-(1H-pyrazol-5-yl)-1H-imidazo[4,5-c]quinolin-1-yl]ethan-1-ol]", "EC50": "> 100"}
{"smiles": "CCn1c(CN2CCCC2=O)nc2c(N)nc3cc(-c4cccs4)ccc3c21", "note": "[Compound 463, 1-{[4-amino-1-ethyl-7-(thiophen-2-yl)-1H-imidazo[4,5-c]quinolin-2-yl]methyl}pyrrolidin-2-one]", "EC50": "> 100"}
{"smiles": "CCNCc1nc2c(N)nc3cc(-c4ccn[nH]4)ccc3c2n1CC", "note": "[Compound 464, 1-ethyl-2-[(ethylamino)methyl]-7-(1H-pyrazol-5-yl)-1H-imidazo[4,5-c]quinolin-4-amine]", "EC50": "> 100"}
{"smiles": "CCn1c(CN2CCCC2=O)nc2c(N)nc3cc(-n4cccn4)ccc3c21", "note": "[Compound 465, 1-{[4-amino-1-ethyl-7-(1H-pyrazol-1-yl)-1H-imidazo[4,5-c]quinolin-2-yl]methyl}pyrrolidin-2-one]", "EC50": "> 100"}
{"smiles": "CCn1c(CN2CCCC2=O)nc2c(N)nc3cc(-c4ccn[nH]4)ccc3c21", "note": "[Compound 466, 1-{[4-amino-1-ethyl-7-(1H-pyrazol-5-yl)-1H-imidazo[4,5-c]quinolin-2-yl]methyl}pyrrolidin-2-one]", "EC50": "> 100"}
{"smiles": "CCNCc1nc2c(N)nc3cc(-n4cccn4)ccc3c2n1CC", "note": "[Compound 467, 1-ethyl-2-((ethylamino)methyl)-7-(1H-pyrazol-1-yl)-1H-imidazo[4,5-c]quinolin-4-amine]", "EC50": "> 100"}
{"smiles": "CCNCc1nc2c(N)nc3cc(-c4cccs4)ccc3c2n1CC", "note": "[Compound 468, 1-ethyl-2-[(ethylamino)methyl]-7-(thiophen-2-yl)-1H-imidazo[4,5-c]quinolin-4-amine]", "EC50": "> 100"}
{"smiles": "Nc1nc2cc(-c3cccs3)ccc2c2c1nc(CN1CCCC1=O)n2CCO", "note": "[Compound 469, 1-{[4-amino-1-(2-hydroxyethyl)-7-(thiophen-2-yl)-1H-imidazo[4,5-c]quinolin-2-yl]methyl}pyrrolidin-2-one]", "EC50": "> 100"}
{"smiles": "CCC(=O)N(CC)Cc1nc2c(N)nc3cc(-c4cccs4)ccc3c2n1CCO", "note": "[Compound 470, N-{[4-amino-1-(2-hydroxyethyl)-7-(thiophen-2-yl)-1H-imidazo[4,5-c]quinolin-2-yl]methyl}-N-ethylpropanamide]", "EC50": "> 100"}
{"smiles": "CCNCc1nc2c(N)nc3cc(-c4cccs4)ccc3c2n1CCO", "note": "[Compound 471, 2-{4-amino-2-[(ethylamino)methyl]-7-(thiophen-2-yl)-1H-imidazo[4,5-c]quinolin-1-yl}ethan-1-ol]", "EC50": "> 100"}
{"smiles": "CCN(Cc1nc2c(N)nc3cc(-c4cccs4)ccc3c2n1CC)C(C)=O", "note": "[Compound 472, N-{[4-amino-1-ethyl-7-(thiophen-2-yl)-1H-imidazo[4,5-c]quinolin-2-yl]methyl}-N-ethylacetamide]", "EC50": "> 100"}
{"smiles": "CCC(=O)N(CC)Cc1nc2c(N)nc3cc(-c4ccn[nH]4)ccc3c2n1CC", "note": "[Compound 473, N-{[4-amino-1-ethyl-7-(1H-pyrazol-5-yl)-1H-imidazo[4,5-c]quinolin-2-yl]methyl}-N-ethylpropanamide]", "EC50": "> 100"}
{"smiles": "CCN(Cc1nc2c(N)nc3cc(-c4ccn[nH]4)ccc3c2n1CC)C(C)=O", "note": "[Compound 474, N-{[4-amino-1-ethyl-7-(1H-pyrazol-5-yl)-1H-imidazo[4,5-c]quinolin-2-yl]methyl}-N-ethylacetamide]", "EC50": "> 100"}
{"smiles": "CCC(=O)N(CC)Cc1nc2c(N)nc3cc(-c4ccn[nH]4)ccc3c2n1CCO", "note": "[Compound 475, N-{[4-amino-1-(2-hydroxyethyl)-7-(1H-pyrazol-5-yl)-1H-imidazo[4,5-c]quinolin-2-yl]methyl}-N-ethylpropanamide]", "EC50": "> 100"}
{"smiles": "CCN(Cc1nc2c(N)nc3cc(-n4cccn4)ccc3c2n1CCO)C(C)=O", "note": "[Compound 476, N-{[4-amino-1-(2-hydroxyethyl)-7-(1H-pyrazol-1-yl)-1H-imidazo[4,5-c]quinolin-2-yl]methyl}-N-ethylacetamide]", "EC50": "> 100"}
{"smiles": "CCNCc1nc2c(N)nc3cc(-n4cccn4)ccc3c2n1CCO", "note": "[Compound 477, 2-[4-amino-2-[(ethylamino)methyl]-7-(1H-pyrazol-1-yl)-1H-imidazo[4,5-c]quinolin-l-yl]ethan-1-ol]", "EC50": "> 100"}
{"smiles": "CCC(=O)N(CC)Cc1nc2c(N)nc3cc(-n4cccn4)ccc3c2n1CCO", "note": "[Compound 478, N-{[4-amino-1-(2-hydroxyethyl)-7-(1H-pyrazol-1-yl)-1H-imidazo[4,5-c]quinolin-2-yl]methyl}-N-ethylpropanamide]", "EC50": "> 100"}
{"smiles": "CCN(Cc1nc2c(N)nc3cc(-n4cccn4)ccc3c2n1CC)C(C)=O", "note": "[Compound 479, N-{[4-amino-1-ethyl-7-(1H-pyrazol-1-yl)-1H-imidazo[4,5-c]quinolin-2-yl]methyl}-N-ethylacetamide]", "EC50": "> 100"}
{"smiles": "CCC(=O)N(CC)Cc1nc2c(N)nc3cc(-c4cccs4)ccc3c2n1CC", "note": "[Compound 480, N-{[4-amino-1-ethyl-7-(thiophen-2-yl)-1H-imidazo[4,5-c]quinolin-2-yl]methyl}-N-ethylpropanamide]", "EC50": "> 100"}
{"smiles": "CCC(=O)N(CC)Cc1nc2c(N)nc3cc(-n4cccn4)ccc3c2n1CC", "note": "[Compound 481, N-{[4-amino-1-ethyl-7-(1H-pyrazol-1-yl)-1H-imidazo[4,5-c]quinolin-2-yl]methyl}-N-ethylpropanamide]", "EC50": "> 100"}
{"smiles": "CCN(Cc1nc2c(N)nc3cc(-c4cccs4)ccc3c2n1CCO)C(C)=O", "note": "[Compound 482, N-{[4-amino-1-(2-hydroxyethyl)-7-(thiophen-2-yl)-1H-imidazo[4,5-c]quinolin-2-yl]methyl}-N-ethylacetamide]", "EC50": "> 100"}
{"target": "T1, TLR8", "assay": "In vitro human TLR8 binding reporter assay (HEK-Blue, NF-kB/AP1-inducible SEAP)", "format": "cell-based", "conditions": "numeric bounds", "how_it_was_run": "as §1", "units": {"EC50": "µM"}}
{"smiles": "CCCS(=O)(=O)N(CC)Cc1nc2c(N)nc3cc(-c4cc[nH]n4)ccc3c2[nH]1", "note": "[Compound 460, N-{[4-amino-7-(1H-pyrazol-3-yl)-1H-imidazo[4,5-c]quinolin-2-yl]methyl}-N-ethylpropane-1-sulfonamide]", "EC50": "> 62"}
